# How the values were obtained:
# [1] = HDL cholesterol in rabbits after injection of phospholipid/peptide complexes; format: in vivo, Male New Zealand White rabbits; design: HDL Cholesterol: unit not given here
# Method: Small discoidal particles consisting of phospholipid (DPPC) and peptide were prepared following the cholate dialysis method. The phospholipid was dissolved in chloroform and dried under a stream of nitrogen. The peptide was dissolved in buffer (saline) at a concentration of 1-2 mg/ml. The lipid film was redissolved in buffer containing cholate (43° C.) and the peptide solution was added at a 3:1 phospholipid/peptide weight ratio. The mixture was incubated overnight at 43° C. and then dialyzed at 43° C. (24 hr.), room temperature (24 hr.) and 4° C. (24 hr.), with three changes of buffer (large volumes) at temperature point. The complexes were filter sterilized (0.22 μm) for injection and storage at 4° C.
# Male New Zealand White rabbits (2.5-3 kg) were injected intravenously with a dose of phospholipid/peptide complex (5 or 10 mg/kg bodyweight, expressed as peptide) in a single bolus injection not exceeding 10-15 ml. The animals were slightly sedated before the manipulations. Blood samples (collected on EDTA) were taken before and 5, 15, 30, 60, 240 and 1440 minutes after injection. The hematocrit (Hct) was determined for each sample. Samples were aliquoted and stored at −20° C. before analysis.
# Plasma Lipids. The total plasma cholesterol, plasma triglycerides and plasma phospholipids were determined enzymatically using commercially available assays according to the manufacturer's protocols (Boehringer Mannheim, Mannheim, Germany and Biomerieux, 69280, Marcy-L'étoile, France).
# Lipoprotein Profiles. The plasma lipoprotein profiles of the fractions obtained after the separation of the plasma into its lipoprotein fractions were determined by spinning in a sucrose density gradient. The fractions were collected and in each individual fraction the phospholipid and cholesterol content was measured enzymatically.
# isolated human HDL = experiment: Formation of pre-β like particles: displacement of human ApoA-I from isolated human HDL; format: binding; details: increasing peptide:HDL mass ratio
# Method: Human HDL was isolated by KBr density ultra centrifugation at density d=1.21 g/ml to obtain top fraction followed by Superose 6 gel filtration chromatography to separate HDL from other lipoproteins. Isolated HDL was adjusted to a final concentration of 1.0 mg/ml with physiological saline based on protein content determined by Bradford protein assay. An aliquot of 300 μl was removed from the isolated HDL preparation and incubated with 100 μl ^14C-labeled peptide 4 (0.2-1.0 μg/μl) for two hours at 37° C. Five separate incubations were analyzed including a blank containing 100 μl physiological saline and four dilutions of ^14C-labeled peptide 4: (i) 0.20 μg/μl peptide:HDL ratio=1:15; (ii) 0.30 μg/μl peptide:HDL ratio=1:10; (iii) […] peptide:HDL ratio=1:5; and (iv) 1.00 μg/μl peptide:HDL ratio=1:3. Following the two hour incubation, a 200 μl aliquot of the sample (total volume=400 μl) was loaded onto a Superose 6 gel filtration column for lipoprotein separation and analysis, and 100 μl was used to determine total radioactivity loaded. The conditions for all FPLC chromatographies were as described in Section 9.4, infra.
sequence,measurement,setting,value
PVLDLFRELLNELLEALKQKLK [peptide 4],HDL Cholesterol,"[1]; 10 mg/kg i.v. as peptide/DPPC complexes, 15 min.",428
same,HDL Cholesterol,"[1]; 10 mg/kg i.v. as peptide/DPPC complexes, time not printed (row between 0 and 15 min.)",408
same,Increase in HDL Cholesterol,"[1]; 10 mg/kg, 15 min.",31.3%
same,HDL Cholesterol,"[1]; 10 mg/kg, 60 min.",387
same,Increase in HDL Cholesterol,"[1]; 10 mg/kg, 60 min.",18.9%
same,HDL Cholesterol,"[1]; 10 mg/kg, 240 min.",291
same,Increase in HDL Cholesterol,"[1]; 10 mg/kg, 240 min.",−10.7%
same,HDL Cholesterol,"[1]; 10 mg/kg, 1440 min.",347
same,Increase in HDL Cholesterol,"[1]; 10 mg/kg, 1440 min.",6.6%
same,duration of the increase in cholesterol of the HDL fractions,"[1]; 10 mg/kg, apparent at 5 min. following injection",approximately 1 hr
same,Increase in HDL Cholesterol,"[1]; 10 mg/kg, time not printed (row between 0 and 15 min.)",25.2%
same,displacement of native ApoA-I from HDL (in words),isolated human HDL,a displacement of ApoA-I was observed which increased with increasing concentration of peptide

# From US6602854B1, “Branched multimeric Apo A-I agonist compounds” (priority 1997, dated 2003)
